Experimental data: a melting point compilation (Tetko et al.; mined from patent text by program, amines drawn as free bases though some values may be those of a salt)

| Structure (SMILES) | melting point [°C] |
| --- | --- |
| CN(NC(=O)OCc1ccccc1)C(=O)c1cc(OCc2ccccc2)c(OCc2ccccc2)c(CNC(=O)OC(C)(C)C)n1 | 125 to 127 |
| CNS(=O)(=O)c1ccc2c(c1)C=C(C(=O)O)C(C(F)(F)F)O2 (configuration not stated) | 208 to 209 |
| Cc1oc(-c2ccccc2)nc1COc1ccc(COc2ncccc2CO)cc1 | 139 to 140 |
| CC(C(=O)O)c1ccc(C(C)(C)C)cc1 (configuration not stated) | 101 to 103 |
| Cn1cccc1C(=O)Nc1cccc(C=CC(=O)N2CC(CCl)c3ccc([N+](=O)[O-])cc32)c1 (configuration not stated) | 215 |
| O=C(O)Cc1ccc2[nH]c(=O)[nH]c2c1 | 161 |
| Cc1nc(N2CCN(CC3CC3(F)F)C2=O)sc1C(=O)NCc1ncco1 (configuration not stated) | 156 to 158 |
| CC(C)(C)C1=CC(=Nc2ccc(CC#N)cc2)C=C(C(C)(C)C)C1=O | 126 to 128 |
| CCC(CN1CCCC1)C(=O)c1cc(-c2ccccc2)no1 (configuration not stated) | 68 to 69 |
| O=C1CCC(N2Cc3cc(CNC(=O)Nc4ccc(Cl)c(-c5nc6ccccc6[nH]5)c4)ccc3C2=O)C(=O)N1 (configuration not stated) | 275 to 277 |
| CCCCNc1nc2cnnc(OCC)c2cc1C(=O)OCC | 98 to 99 |
| COc1cc(CO[Si](C(C)C)(C(C)C)C(C)C)ccc1OCc1nc(-c2cccc(-c3nnn[nH]3)c2)oc1C | 152 to 153 |
| CCCCNC(=O)S(=O)(=O)Nc1sc(CC(C)C)cc1-c1ccc(Cn2c(-c3ccccc3)nc(OC)c2C=O)cc1 | 131 to 133 |
| O=C(NCc1ccc(I)cc1Cl)C1CC1 | 158 to 160 |
| CCn1cc(Nc2nc(-c3cccc(N4Cc5cc(C(C)(C)C)ccc5C4=O)c3CO)cn(C)c2=O)cn1 | 138 to 140 |
| O=C(O)CCCN(C(=O)c1cccc(C(F)(F)F)c1)c1cccc2ccccc12 | 128 to 129 |
| C[C@H](C(=O)O)c1ccc2cc(OCCCCCCc3ccc(OCc4ccccc4)c(OCc4ccccc4)c3)ccc2c1 | 80 to 82 |
| COC(=O)C1=C(C)Nc2c(c(=O)n(C)c(=O)n2C)C1c1cccc([N+](=O)[O-])c1 (configuration not stated) | > 230 |
| C1=NCc2cncn2-c2ccccc21 | 150 to 151 |
| COc1ccc(C=CC(=O)c2ccc(O)c(CC(=O)O)c2)cc1 | 247 |

| Structure (SMILES) | melting point [°C] |
| --- | --- |
| O=C(O)c1cc(OCc2ccccc2)cc(OCc2ccccc2)c1 | 211 to 213 |
| CCOC(=O)c1c(CN(CC)CC)nc2cc(OC)c(OC)cc2c1-c1ccc(Cl)c(Cl)c1 | 157 to 158 |
| Cc1nc2cc(NC(=O)c3cc4cc(F)ccc4n3Cc3cccc(F)c3)cnc2s1 | 264 to 265 |
| COc1ccccc1-n1c(-c2sc(Nc3ccc(Cl)cc3)nc2-c2ccccc2)nc2ccccc2c1=O | 230 to 232 |
| COc1ccccc1C1(CC(=O)O)C(=O)Nc2ccc(Cl)cc21 (configuration not stated) | 135 to 139 |
| Cc1nc[nH]c1CSCCNC1=NC(=O)C(Cc2ccccc2)N1 (configuration not stated) | 104 to 107 |
| CC(=O)NCCc1cn(S(=O)(=O)c2c(Cl)nc3sccn23)c2ccccc12 | 150 to 152 |
| Cn1cc(C2=C(c3c(S(C)=O)n(C)c4ccccc34)C(=O)NC2=O)c2ccccc21 (configuration not stated) | 300 |
| CC(=O)OC1=CCC2C3CC=C4CC(OC(C)=O)CCC4(C)C3CCC12C (configuration not stated) | 144 to 150 |
| CC(C)(C)c1cc(C(=O)c2ccc[nH]2)cc(C(C)(C)C)c1O | 146 |
| CSc1ccc(-c2coc3ccc(-c4nnc(C)o4)cc23)cc1OC(F)(F)F | 185 to 186 |
| CC1=C(c2ccc(OCC(=O)O)c(Cl)c2Cl)CCCC1=O | 143 to 145 |
| Cc1nc2c(O[C@H]3c4ccccc4C[C@@H]3O)cccn2c1CO | 174 to 175 |
| O=C(O)Cc1ccc2oc(-c3ccc(N4C=CC=CN4c4ccc(-c5nc6cc(CC(=O)O)ccc6o5)cc4)cc3)nc2c1 | > 300 |
| COc1cc(NCCCC(C)N2C(=O)c3ccccc3C2=O)c2nc(C)cc(C)c2c1OC (configuration not stated) | 141 to 144 |
| CC(=O)O[C@@H]1C=C2C=C3C(=C(C)C(=O)N3C)C[C@]2(C)[C@@H](C)[C@H]1O | 50 to 55 |
| CCCCCCOc1c(F)ccc(C(N)=O)c1F | 86 to 87 |
| Cc1ncc(CN2CCC(COCc3ccccc3)CC2)c(N)n1 | 106 to 108 |
| N#CCCSCc1nccc(N)n1 | 106 to 109 |

Next, values leading:

| melting point [°C] | Structure (SMILES) |
| --- | --- |
| 221 | COC(=O)COc1ccc(Cn2c(-c3ccc(C(F)(F)F)cc3)c(C)c3cc(OCc4ccccc4)ccc32)cc1 |
| 60 | CCNC(=O)c1cccc(F)c1N |
| 130 to 132 | CC(=O)OC1CC(C)(C)N(OC(=O)C=Cc2ccccc2)C(C)(C)C1 |
| 127 to 129 | Nc1ccc(Sc2ccccc2)cn1 |
| 176 to 178 | c1ccc(N2CCN(c3nsc4nc5ccccc5n34)CC2)nc1 |
| 153 to 156 | O=C1Nc2cccnc2N(C(=O)N2CCCC(CCCCN3CCCC3)C2)c2ccccc21 (configuration not stated) |
| 124 to 126 | CCCc1nc(C)c2nnc3ccc(F)cc3n12 |
| 186 to 189 | O=CN(O)C(CCO)CS(=O)(=O)c1ccc(-c2ccc(C(F)(F)F)cc2)cc1 (configuration not stated) |
| 163 to 166 | O=C(NCc1ccc(Cl)cc1)c1cc(Cl)c2cccnc2c1O |
| 180 to 183 | CCCCc1c(C(=O)N(C)Cc2ccc3c(Br)c(OCc4nnn[nH]4)ccc3c2)oc2ccccc12 |
| 167 to 169 | COc1ccc2nccc(NC(=O)N3CCN(CC(=O)c4cnc5ccccc5n4)CC3)c2n1 |
| 165 to 169 | CCN(CC)C(=O)c1ccc(C)c(-c2nc(NC3CCN(C)CC3)nc3c2CNC(=O)N3c2c(F)cccc2F)c1 |
| 105 to 110 | COc1ccc(C)cc1NC(=O)Nc1ccc(C2CCN(C(=O)Nc3ncccc3CO)CC2)cc1 |
| 256 to 258 | COc1ccc(C(=O)Nc2ccc(C(C)(C)CNC(=O)c3cnc4[nH]ccc4c3)cc2)cc1OC |
| 161 to 164 | CCOc1ccc2cccnc2c1[N+](=O)[O-] |
| 113 to 114 | CC(=O)OCC1OC(SCC=Cc2ccccc2)C(OC(C)=O)C(OC(C)=O)C1OC(C)=O (configuration not stated) |
| 124 to 125 | O=C1c2ccccc2C(=O)N1CCSc1ccc(O)cc1 |
| 156 to 158 | O=C1CCCC(CNC(=O)c2cc(O)ccc2OCC(F)(F)F)N1 (configuration not stated) |
| 81 to 82.5 | O=C1SC(Cc2ccc(OCCc3c[nH]c4ccccc34)cc2)C(=O)N1C(c1ccccc1)(c1ccccc1)c1ccccc1 (configuration not stated) |
| 84 to 85 | CCOC(=O)c1nc(S(C)(=O)=O)n(C)c(=O)c1OCc1ccccc1 |
| 56 to 68 | CC1C(O)CCC2CC3(CCC21)OCCO3 (configuration not stated) |
| 104 to 105 | Cc1nc2cc3c(cc2nc1C(=O)OC(C)(C)C)OC(C)(C)O3 |
| 150 to 153 | Fc1cc(C(F)(F)F)ccc1/C=C/c1nc(COc2ccc(-c3nc(Cn4ccnc4)co3)cc2)co1 |
| 249 to 254 | COCc1ccc(-c2csc(-c3ccncc3)n2)c(=O)[nH]1 |
| 62 to 63 | CON=C(C(=O)OC)c1cccc(OCc2ccccc2)c1 |
| 98 to 100 | CCc1nnc2c(N(CC)CC)nc3ccccc3n12 |
| 75 to 76 | CC(C)(C)OC(=O)[C@H]1CCCN1CC(=O)N1CCC[C@@H]1C(=O)OC(C)(C)C |
| 159 to 160 | CC(C)(C)COc1ccc(NC(=O)c2cnn(CC(F)(F)F)c2)cc1C#N |
